Data on four compounds can be found in patent US20060069132A1, “Azolecarboxamide herbicides” (priority 2004, published 2006).

One assay deals with goosegrass. Kind of assay: Test C pre-/postemergence herbicide test. It counts as in vivo, Eleusine indica. Put shortly: (§1)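 Pre/post spray; non-phytotoxic solvent + surfactant. Post-timing 1–4 leaves, 2–18 cm. Read-out: visual % control vs untreated, day 12–14, greenhouse.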
For a further assay, the system named is morningglory. The assay can be described thus: Test C pre-/postemergence herbicide test. Also noted: key to Plant response rating, Morningglory: 0 = no effect, 100 = complete control. The class given is in vivo, Ipomoea coccinea. The essentials:
as §1

A further assay deals with rice. Kind of assay: Test B pre-/postemergence herbicide test. The class given is in vivo, Oryza sativa. As to conditions: for Rice plant response rating (0 to 100 scale) / Plant response rating, Rice: preemergence; for Plant response rating, Rice: visual rating. The essentials: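 Species tested were Echinochloa crus-galli, Ipomoea coccinea, Xanthium strumarium and Oryza sativa, treated both before emergence and at the 1- to 4-leaf stage; rice and barnyardgrass were also tested under flooding at 2 leaves. Greenhouse incubation lasted 13–15 days before visual 0–100 scoring.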

The subject of another assay is woolly cupgrass. The assay can be described thus: Test C pre-/postemergence herbicide test. The class given is in vivo, Eriochloa villosa. The essentials: as §1
The subject of the next assay is velvetleaf. The assay can be described thus: Test B pre-/postemergence herbicide test. As to conditions: for pest or weed control at 125 g/ha / pest or weed control at 500 g/ha: Abutilon theophrasti, 336 h; for Plant response rating, Velvetleaf: preemergence. The class given is in vivo, Abutilon theophrasti. Put shortly: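 Greenhouse pot assay with simultaneous preemergence (treated seed) and postemergence (2–18 cm seedlings) applications of surfactant-containing, non-phytotoxic solvent formulations. Response scored visually 13–15 days later on a 0–100 scale, 100 meaning complete control.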

The next assay concerns bermudagrass. Kind of assay: Test C pre-/postemergence herbicide test. The class given is in vivo, Cynodon dactylon. The essentials:
as §1

For another assay, the system named is soybean. Kind of assay: Test C pre-/postemergence herbicide test. The class given is in vivo, Glycine max. The essentials: as §1
[1] abbreviates: Preemergence, 500 g ai/ha, scale 0 to 100, 0 no effect, 100 complete control.
The mark [2] stands for this setting: 62 g ai/ha, preemergence, scale 0 to 100.
The mark [3] stands for this setting: 125 g ai/ha, scale 0 (no effect) to 100 (complete control), visual, 12 to 14 days, preemergence.
Where [4] appears, read: 250 g ai/ha, scale 0-100, preemergence.
Where [5] appears, read: 500 g ai/ha, scale 0 to 100 (0 no effect, 100 complete control), visual, 12 to 14 days, preemergence.
[6] abbreviates: 125 g ai/ha, 0 = no effect, 100 = complete control.
Setting [7] is: 500 g ai/ha, 0 = no effect, 100 = complete control.
The mark [8] stands for this setting: 125 g ai/ha, visual rating, scale 0 (no effect) to 100 (complete control), postemergence.
The mark [9] stands for this setting: 500 g ai/ha, visual rating, 0 = no effect, 100 = complete control.
Where [10] appears, read: postemergence, 500 g ai/ha, scale 0 to 100, 0 is no effect, 100 is complete control.
The mark [11] stands for this setting: 62 g ai/ha, preemergence, scale 0 to 100, 0 no effect, 100 complete control.

Read-outs that look alike come from different tables or passages of the source.

For `CCc1nn(C(C)(C)C)cc1C(=O)Nc1cccc(C(=O)N(CC)CC)c1` [Compound 182, N-[3-[(diethylamino)carbonyl]phenyl]-1-(1,1-dimethylethyl)-3-ethyl-1H-pyrazole-4-carboxamide], the pest or weed control at 62 g/ha came to 0% in the assay with goosegrass (Eleusine indica, pre-emergence, 312 h, 62 g ai/ha, preemergence, scale 0 to 100, read-out: Plant response rating, Goosegrass); 0% in the assay with morningglory (Ipomoea, pre-emergence, 62 g ai/ha, preemergence, scale 0 to 100, read-out: Plant response rating, Morningglory); 0% in the assay with woolly cupgrass (Eriochloa villosa, pre-emergence, 312 h, 62 g ai/ha, preemergence, scale 0 to 100, read-out: Plant response rating, Cupgrass, Woolly); 20% in the assay with bermudagrass (Cynodon dactylon, pre-emergence, 312 h, 62 g ai/ha, preemergence, scale 0 to 100, 0 no effect, 100 complete control, read-out: Plant response rating, Bermudagrass). In addition, the pest or weed control at 125 g/ha in the assay with goosegrass (Eleusine indica, pre-emergence, 312 h, 125 g ai/ha, scale 0 (no effect) to 100 (complete control), visual, 12 to 14 days, read-out: Plant response rating, Goosegrass) came to 25%; in the assay on morningglory (Ipomoea, pre-emergence, 125 g ai/ha, scale 0 (no effect) to 100 (complete control), visual, 12 to 14 days, read-out: Plant response rating, Morningglory) it was 15%; in the assay with woolly cupgrass (Eriochloa villosa, pre-emergence, 312 h, 125 g ai/ha, scale 0 (no effect) to 100 (complete control), visual, 12 to 14 days, read-out: Plant response rating, Cupgrass, Woolly) it was 0%; with velvetleaf (post-emergence, postemergence, 125 g ai/ha, visual rating, scale 0 (no effect) to 100 (complete control), read-out: Velvetleaf plant response rating), 0%; in the assay with velvetleaf (pre-emergence, 125 g ai/ha, 0 = no effect, 100 = complete control, read-out: Velvetleaf plant response rating (0 to 100 scale)) it was 0%; in the assay with bermudagrass (Cynodon dactylon, pre-emergence, 312 h, 125 g ai/ha, scale 0 (no effect) to 100 (complete control), visual, 12 to 14 days, read-out: Plant response rating, Bermudagrass) it was 75%. Besides, the “Goosegrass plant response rating” value in the assay with goosegrass (setting [1]) is listed as 80. For the same compound, the “Morningglory plant response rating” value in the assay with morningglory (setting [1]) is on record as 100. Besides, the plant injury at 125 g/ha in the assay with rice (Oryza sativa, pre-emergence, 336 h, 125 g ai/ha, 0 = no effect, 100 = complete control, read-out: Rice plant response rating (0 to 100 scale)) stood at 0%; with soybean (Glycine max, pre-emergence, 125 g ai/ha, scale 0 (no effect) to 100 (complete control), visual, 12 to 14 days, read-out: Plant response rating, Soybean), 0%. For the same compound, in the assay on rice (Oryza sativa, pre-emergence, 336 h, 500 g ai/ha, visual rating 0-100, 0 no effect, 100 complete control, read-out: Plant response rating, Rice), the plant injury at 500 g/ha came to 50%. The pest or weed control at 250 g/ha in the assay with woolly cupgrass (Eriochloa villosa, pre-emergence, 312 h, 250 g ai/ha, scale 0 to 100 (0 no effect, 100 complete control), visual, 12 to 14 days, read-out: Plant response rating, Cupgrass, Woolly) was 0%; in the assay on bermudagrass (Cynodon dactylon, pre-emergence, 312 h, 250 g ai/ha, scale 0 to 100 (0 no effect, 100 complete control), visual, 12 to 14 days, read-out: Plant response rating, Bermudagrass), 90%. Further, the “Cupgrass, Woolly plant response rating” value in the assay on woolly cupgrass (setting [1]) worked out at 0. Moreover, the pest or weed control at 500 g/ha in the assay on velvetleaf (post-emergence, postemergence, 500 g ai/ha, visual rating, scale 0 (no effect) to 100 (complete control), read-out: Velvetleaf plant response rating) came out at 60%; in the assay on velvetleaf (pre-emergence, 500 g ai/ha, visual rating 0-100, 0 no effect, 100 complete control, read-out: Plant response rating, Velvetleaf) it was 70%; in the assay on bermudagrass (Cynodon dactylon, pre-emergence, 312 h, Preemergence, 500 g ai/ha, scale 0 to 100, 0 no effect, 100 complete control, read-out: Bermudagrass plant response rating), 95%. In addition, the plant injury at 62 g/ha with soybean (Glycine max, pre-emergence, 62 g ai/ha, preemergence, scale 0 to 100, read-out: Plant response rating, Soybean) came out at 0%. In the assay with soybean (setting [1]), the “Soybean plant response rating” value is given as 15.

`CCc1nn(C(C)(C)C)cc1C(=O)Nc1cc(C(=O)N(C)C)ccn1` [Compound 293]: the “Plant response rating, Goosegrass” value came out at 65 in the assay on goosegrass (setting [2]), 85 in the assay on goosegrass (setting [3]), 95 in the assay on goosegrass (setting [4]) and 100 in the assay on goosegrass (setting [5]). Moreover, the “Plant response rating, Morningglory” value in the assay on morningglory (setting [4]) was 100. The “Rice plant response rating (0 to 100 scale)” value (“Rice plant response rating” for short) in the assay on rice (setting [6]) came to 90. Also, the “Plant response rating, Rice” value in the assay with rice (setting [7]) is 100. Moreover, the “Plant response rating, Cupgrass, Woolly” value in the assay with woolly cupgrass (setting [2]) worked out at 45; in the assay with woolly cupgrass (setting [3]) it was 70; with woolly cupgrass (setting [4]), 95; in the assay on woolly cupgrass (setting [5]) it was 100. In addition, the “Velvetleaf plant response rating” value came to 10 with velvetleaf (setting [8]) and 30 in the assay on velvetleaf (setting [10]). In addition, in the assay on velvetleaf (setting [9]), the “Plant response rating, Velvetleaf” value turned out to be 100. In addition, the “Plant response rating, Bermudagrass” value turned out to be 90 in the assay with bermudagrass (setting [11]), 95 with bermudagrass (setting [3]) and 100 in the assay with bermudagrass (setting [4]). Also, in the assay with bermudagrass (setting [1]), the “Bermudagrass plant response rating” value was determined as 100. Moreover, the “Plant response rating, Soybean” value was 0 with soybean (setting [2]), 90 in the assay on soybean (setting [4]) and 100 in the assay on soybean (setting [5]).

`CCn1nc(C(C)(C)C)cc1C(=O)Nc1cc(C(=S)N(C)C)ccc1F` [Compound 294]: the “Plant response rating, Goosegrass” value in the assay with goosegrass (setting [2]) is listed as 80; in the assay on goosegrass (setting [3]) it was 80; with goosegrass (setting [4]) it was 85; in the assay with goosegrass (setting [5]), 100. Moreover, the “Plant response rating, Morningglory” value was 30 in the assay with morningglory (setting [2]), 30 in the assay with morningglory (setting [3]), 50 with morningglory (setting [4]) and 50 with morningglory (setting [5]). Besides, the “Rice plant response rating” value in the assay on rice (setting [6]) was found to be 90. Also, the “Plant response rating, Rice” value with rice (setting [7]) is given as 100. In addition, the “Plant response rating, Cupgrass, Woolly” value in the assay with woolly cupgrass (setting [2]) amounted to 55; with woolly cupgrass (setting [3]), 75; in the assay with woolly cupgrass (setting [4]) it was 80; in the assay with woolly cupgrass (setting [5]), 85. Also, the “Velvetleaf plant response rating” value in the assay with velvetleaf (setting [8]) was 40; with velvetleaf (setting [10]), 80. Moreover, the “Plant response rating, Velvetleaf” value in the assay with velvetleaf (setting [9]) turned out to be 100. The “Plant response rating, Bermudagrass” value was 70 in the assay with bermudagrass (setting [11]), 80 with bermudagrass (setting [3]) and 90 with bermudagrass (setting [4]). In addition, the “Bermudagrass plant response rating” value in the assay on bermudagrass (setting [1]) is 90. In addition, the “Plant response rating, Soybean” value with soybean (setting [2]) is reported as 70; with soybean (setting [4]) it was 100; in the assay on soybean (setting [5]), 100.

Take `CCn1nc(C2(C)CC2)cc1C(=O)Nc1cc(C(=O)N(C)C)ccc1F` [Compound 299]: the “Plant response rating, Goosegrass” value in the assay on goosegrass (setting [2]), with goosegrass (setting [3]), in the assay on goosegrass (setting [4]) and with goosegrass (setting [5]) was 100 each time. Further, the “Plant response rating, Morningglory” value is recorded as 5 in the assay on morningglory (setting [2]), 75 in the assay on morningglory (setting [3]), 100 with morningglory (setting [4]) and 100 in the assay on morningglory (setting [5]). For the same compound, in the assay with rice (setting [6]), the “Rice plant response rating” value is 80. The “Plant response rating, Rice” value in the assay on rice (setting [7]) is 90. Further, the “Plant response rating, Cupgrass, Woolly” value in the assay with woolly cupgrass (setting [2]) turned out to be 50; in the assay on woolly cupgrass (setting [3]), 70; in the assay with woolly cupgrass (setting [4]) it was 90; with woolly cupgrass (setting [5]) it was 100. The figures for the “Velvetleaf plant response rating” value in the assay on velvetleaf (setting [8]) and with velvetleaf (setting [10]) were 60 and 100, respectively. Moreover, in the assay with velvetleaf (setting [9]), the “Plant response rating, Velvetleaf” value came out at 100. In addition, the “Plant response rating, Bermudagrass” value in the assay with bermudagrass (setting [11]), in the assay on bermudagrass (setting [3]) and with bermudagrass (setting [4]) was 100 in each case. Besides, the “Bermudagrass plant response rating” value in the assay with bermudagrass (setting [1]) was 100. Besides, the “Plant response rating, Soybean” value is listed as 55 in the assay on soybean (setting [2]), 90 in the assay with soybean (setting [4]) and 95 in the assay with soybean (setting [5]).
